For series [1], the system named is mice. The settings on record: Takahashi and Bepu, J. Antibiotics 1982; cited from earlier work.
For series [2], the target named is Hsp90α Protein (Homo sapiens, UniProt P07900). The series is described as follows: Hsp90 CE Competitive Binding Assay (displacement of fluorescein-labelled geldanamycin). Here is the method: Hsp90 CE Competitive Binding Assay: […]
b) “Competitor”, fluorescein-labelled geldanamycin • The competitor was synthesized as described by Llauger-Bufi et al, Bioorg.
The electrophoresis running buffer (RB) is comprised of 200 mM CAPSO, pH 9.2 (pH-adjusted with Trizma base). The sample buffer (SB) is comprised of 10 mM Trizma base, pH 8.0 (pH-adjusted with glacial acetic acid), 5 mM MgCl2, 5 mM DTT, and BSA and Triton as noted.
Capillary electrophoresis was performed on Cetek Gemini Systems™ using laser-induced fluorescence detection. Fused-silica capillaries (50 μm I.D.×30 cm, approximately 10 cm length from end to detection window) were internally coated using Cetek's proprietary methods.
Each sample (i.e., fermentation extract, partially-purified fraction, or compound mixture, or pure compound) to be assayed is prediluted 1:20 or 1:40 in SB containing 0.02% Triton. 1 μl of each prediluted sample is then deposited into a 96-well microtiter plate and mixed with 8 μl of Target Cocktail. These samples can be stored at 4° C. until ready for assay.
When ready for analysis, the plates are transferred to the deck of a Gemini System. To each mixture of sample and target, 1 μl of Competitor Cocktail is added and mixed thoroughly. This reaction mixture is allowed to incubate for 8 minutes on the refrigerated deck of the Gemini System (temperature 8° C.). During incubation, the CE capillary is rinsed for 30 seconds with RB containing 2 mg/ml BSA, and then 60 seconds with RB. At the end of incubation, a small plug of the reaction mixture is then injected into the capillary at low pressure (0.5 psi) for 7 seconds. The loaded capillary is then dipped into reservoirs containing RB and the sample is electrophoresed at 10 kV for 6 minutes at a temperature of 8° C.
The electrophoretic separation produces a graphical profile known as an “electropherogram,” which contains a peak representing the intact complex between Hsp90 and competitor, and a smaller series (typically, a triplet) of peaks representing unbound competitor. […] Dose-response experiments, which evaluate the degree of competitor displacement as a function of sample concentration, are subsequently run in triplicate to validate hits and to quantitate their potencies, which are expressed as IC50 values.
Negative controls are comprised of 0.5% DMSO, and positive controls are comprised of 0.1 μg/ml 17-AAG.

Series [3] has as its system protein synthesis. The settings on record: literature reports; cited from earlier work.
Series [4] concerns the target HSP90alpha protein (Homo sapiens, UniProt P07900). The series is described as follows: Hsp90alpha and BODIPY-Geldanamycin Fluorescent Polarization Binding Assay. The settings on record: 5 nM BODIPY GA, 30 nM Hsp90alpha. Here is the method: Hsp90alpha and BODIPY-Geldanamycin Fluorescent Polarization Binding Assay Materials • HSP90alpha protein (Stressgen SPP-776) and BODIPY Labeled Geldanamycin (GA) was added to assay buffer stock (stored at 4 C): 20 mM Hepes pH 7.3, 50 mM KCl, 20 mM NaMoO4, 0.01% NP40 • Working Assay buffer: assay buffer stock @RT with freshly added 2 mM DTT and 0.1 mg/ml • Bovine Gamma Globulin (Panvera P2045, 5 mg/ml) • Black 96well micro titer plates (Thermo #7205, vwr# 25227-304) Sample Set-up and Controls • Competitive Binding Samples: 5 nM GA and 30 nM Hsp90alpha and inhibitor • Control Samples: buffer only, BODIPY GA only, BODIPY GA plus Hsp90alpha, BODIPY GA plus • Hsp90alpha and unlabeled GA Protocol 1. Prepare working assay buffer with Hsp90alpha protein at a final concentration of 30 nM per well in 100 ul final volume. Add 85 ul of this solution per well to 96 well black micro titer plate. (for 20 ml assay buffer add 400 ul 1 M DTT stk and 400 ul 5 mg/ml BGG stk) (1 mg/ml Hsp90 stock=˜11 uM protein; want 0.03 uM final in 100 ul, so adjust to 0.035 uM in 85 ul which is 1:314 fold dilution into assay buffer=64 ul protein plus 20 ml buffer to dispense 85 ul/well). 2. Add 5 ul of inhibitors @ 20× final desired concentration. For 10 ug/ml start, the overall dilution from 1 mg/ml stocks is 1:100. […] Use Wallac Envision to read FP using protocol: JENs FP FITC Dual in room 4603. (parameters are: mirror module-FITC FP dual, excitation filter-FITC FP 480, emission filters-FITC FP P-pol 535 and FITC FP S-pol 535) Analysis of Results The Envision instrument automatically prepares a calculation based on the readings it obtains from the two measurements. […] By adjusting G to 0.96 or 0.97, the FP measurement calculation will result in a “0” reading for BODIPY GM without Hsp90. […] IC50s will be determined manually from percent polarization values plotted in Microsoft Excel. […]

Molecules are shown by their SMILES.

Results on four compounds are retold here after patent publication US20080096903A1, “SULFAMOYL-CONTAINING DERIVATIVES AND USES THEREOF” (Wyeth, priority 2006, published 2008).

For `Nc1nc(Cl)nc2c1ncn2C1OC(COS(N)(=O)=O)C(O)C1O` (stereo not shown) [CSA, 2-chloro-5′-sulfamoyladenosine, reference compound], the toxicity to mice result in series [1] was “toxic to mice”. For the same compound, the “HSP90 inhibition / binding (in words)” value in series [2] was “inhibits HSP90”. Further, the half-inhibitory concentration (IC50) in series [2] (initial structure activity relationship table, read-out: HSP90 CE IC50) amounted to 1000 nM. In addition, the “inhibition of protein synthesis” value in series [3] is on record as “inhibit protein synthesis”.

Turning to `Nc1nc(F)nc2c1nc(Cc1cc3c(cc1I)OCO3)n2Cc1cn(CCOS(N)(=O)=O)nn1` [Example 16A, Sulfamic Acid 2-(4-((6-amino-2-fluoro-8-((6-iodobenzo[d][1,3]dioxol-5-yl)methyl)-9H-purin-9-yl)methyl)-1H-1,2,3-triazol-1-yl)ethyl ester], in series [4], the 50% inhibitory concentration (IC50) came to 180 nM.

On to `Nc1nc(F)nc2c1nc(Cc1cc3c(cc1I)OCO3)n2Cc1cn(CCCOS(N)(=O)=O)nn1` [Example 16B, Sulfamic Acid 3-[4-({6-amino-2-fluoro-8-[(6-iodo-1,3-benzodioxol-5-yl)methyl]-9H-purin-9-yl}methyl)-1H-1,2,3-triazol-1-yl]propyl ester], for which the IC50 in series [4] was found to be 390 nM.

As to `Nc1nc(F)nc2c1nc(Cc1cc3c(cc1I)OCO3)n2CC#CCN1CCC(OS(N)(=O)=O)C1` (stereo not shown) [Example 160], the 50% inhibitory concentration (IC50) in series [4] stood at 140 nM.
